ChEMBL document CHEMBL1138721, “Development of an efficient and selective radioligand for bradykinin B1 receptor occupancy studies” (Bioorg Med Chem Lett, 2004)
pIC50, pKd, pKi: −log10 of the molar value.

Tests used:
[1] = Partition coefficient (logP); format: physicochemical; details: octanol/water
B1 bradykinin receptor [2] = target: T1, B1 bradykinin receptor (Homo sapiens, UniProt P46663); assay: Binding affinity to human Bradykinin receptor B1 over-expressed in transgenic rats was determined by ex vivo receptor occupancy assay
T1 sequence (P46663 whole entry): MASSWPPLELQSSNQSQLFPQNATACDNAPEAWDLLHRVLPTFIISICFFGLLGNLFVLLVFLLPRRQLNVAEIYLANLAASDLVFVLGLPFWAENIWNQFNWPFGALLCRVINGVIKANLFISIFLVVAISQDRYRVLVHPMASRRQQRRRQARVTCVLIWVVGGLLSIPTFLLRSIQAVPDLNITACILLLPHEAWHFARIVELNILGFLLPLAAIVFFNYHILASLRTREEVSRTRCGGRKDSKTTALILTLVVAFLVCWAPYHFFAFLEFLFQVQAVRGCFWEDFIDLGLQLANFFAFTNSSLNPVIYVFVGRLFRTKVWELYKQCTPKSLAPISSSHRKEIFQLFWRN

Homo sapiens [3] = species: Homo sapiens; assay: Binding affinity to human plasma protein; format: cell-free
B2 bradykinin receptor [4] = target: T2, B2 bradykinin receptor (Homo sapiens, UniProt P30411); assay: Binding affinity to human Bradykinin receptor B2 over-expressed in transgenic rats was determined by ex vivo receptor occupancy assay
T2 sequence (P30411 whole entry): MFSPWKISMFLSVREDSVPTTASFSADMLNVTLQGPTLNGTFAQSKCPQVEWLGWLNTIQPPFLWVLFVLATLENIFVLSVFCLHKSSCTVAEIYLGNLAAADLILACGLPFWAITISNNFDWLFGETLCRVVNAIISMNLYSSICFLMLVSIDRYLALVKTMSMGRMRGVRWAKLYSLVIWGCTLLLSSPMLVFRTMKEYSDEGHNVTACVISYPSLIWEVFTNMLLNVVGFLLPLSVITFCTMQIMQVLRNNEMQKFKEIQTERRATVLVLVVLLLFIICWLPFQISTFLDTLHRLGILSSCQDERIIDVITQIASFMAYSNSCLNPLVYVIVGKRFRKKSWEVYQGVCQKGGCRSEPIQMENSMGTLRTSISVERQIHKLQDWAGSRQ

B1 bradykinin receptor [5] = target: T1, B1 bradykinin receptor; assay: Binding affinity (radioligand) to human Bradykinin receptor B1 over-expressed in transgenic rats was determined by ex vivo receptor occupancy assay; value ranges from 0.1-0.2 nM
B1 bradykinin receptor [6] = target: T1, B1 bradykinin receptor; assay: Binding affinity of the [35S]- radiolabeled compound to human Bradykinin receptor B1 over-expressed in transgenic rats was determined by ex vivo receptor occupancy assay
B2 bradykinin receptor [7] = target: T2, B2 bradykinin receptor; assay: Binding affinity of the [35S]- radiolabeled compound to human Bradykinin receptor B2 over-expressed in transgenic rats was determined by ex vivo receptor occupancy assay
B1 bradykinin receptor [8] = target: T3, B1 bradykinin receptor (Rattus norvegicus, UniProt P97583); assay: Binding affinity of the [35S]- radiolabeled compound to rat Bradykinin receptor B1
T3 sequence (P97583 whole entry): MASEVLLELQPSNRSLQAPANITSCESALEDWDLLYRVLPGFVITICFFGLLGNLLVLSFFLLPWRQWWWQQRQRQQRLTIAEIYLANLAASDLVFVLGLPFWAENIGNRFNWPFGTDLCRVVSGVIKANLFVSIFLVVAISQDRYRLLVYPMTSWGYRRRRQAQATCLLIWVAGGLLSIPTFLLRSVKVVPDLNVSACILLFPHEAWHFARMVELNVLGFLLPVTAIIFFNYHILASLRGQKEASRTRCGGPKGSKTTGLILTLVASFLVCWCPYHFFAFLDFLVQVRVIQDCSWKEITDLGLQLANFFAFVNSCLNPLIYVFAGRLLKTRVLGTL

B1 bradykinin receptor [9] = target: T4, B1 bradykinin receptor (Canis lupus familiaris, UniProt Q9BDQ5); assay: Binding affinity of the [35S]- radiolabeled compound to dog Bradykinin receptor B1
T4 sequence (Q9BDQ5 whole entry): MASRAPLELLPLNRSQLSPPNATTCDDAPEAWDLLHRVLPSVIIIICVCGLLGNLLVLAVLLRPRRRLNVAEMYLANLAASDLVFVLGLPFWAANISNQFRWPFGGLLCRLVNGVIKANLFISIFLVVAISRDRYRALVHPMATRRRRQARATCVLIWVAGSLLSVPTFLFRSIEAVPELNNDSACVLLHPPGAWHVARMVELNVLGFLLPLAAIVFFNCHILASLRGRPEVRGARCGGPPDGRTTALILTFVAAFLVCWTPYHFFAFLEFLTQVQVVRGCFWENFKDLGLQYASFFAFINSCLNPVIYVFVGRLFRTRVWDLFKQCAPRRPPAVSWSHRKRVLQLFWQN

Homo sapiens [10] = species: Homo sapiens; assay: Binding affinity of the [35S]- radiolabeled compound to human plasma protein; format: cell-free
B1 bradykinin receptor [11] = target: T5, B1 bradykinin receptor (Oryctolagus cuniculus, UniProt P48748); assay: Binding affinity of the [35S]- radiolabeled compound to rabbit Bradykinin receptor B1
T5 sequence (P48748 whole entry): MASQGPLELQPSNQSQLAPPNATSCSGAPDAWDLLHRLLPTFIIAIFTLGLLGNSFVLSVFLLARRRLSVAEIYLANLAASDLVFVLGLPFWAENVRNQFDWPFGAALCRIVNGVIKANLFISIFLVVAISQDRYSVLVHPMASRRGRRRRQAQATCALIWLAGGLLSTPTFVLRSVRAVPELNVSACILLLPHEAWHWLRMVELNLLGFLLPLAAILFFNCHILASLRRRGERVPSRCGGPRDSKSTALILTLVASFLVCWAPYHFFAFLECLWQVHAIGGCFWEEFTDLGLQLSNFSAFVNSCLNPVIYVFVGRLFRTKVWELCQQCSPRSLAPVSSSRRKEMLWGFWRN

B1 bradykinin receptor [12] = target: T1, B1 bradykinin receptor; assay: Antagonist activity against human Bradykinin receptor B1 was determined in a fluorescence imaging plate reader assay; format: functional
[13] = Half-life of the [35S]- radiolabeled compound; format: ADME
B1 bradykinin receptor [14] = target: T1, B1 bradykinin receptor; assay: Equilibrium dissociation constant of the [35S]- radiolabeled compound against human Bradykinin receptor B1 expressed in CHO membranes was determined; format: cell membranes
[15] = target: T6, B1 bradykinin receptor (Homo sapiens) (UniProt P46663); assay: Maximum specific binding of the [35S]- radiolabeled compound to human Bradykinin receptor B1 expressed in CHO membranes was determined; format: cell membranes
T6 sequence (whole entry): T1 sequence (P46663 whole entry)

logP [1] | pKi (B1 bradykinin receptor [2]) | PPB (Homo sapiens [3]) [%] | pKi (B2 bradykinin receptor [4]) | further results | SMILES
0.53 | 10.70 | 91.7 | < 5.00 | – | CN1CCN=C1c1ccc(CCNC(=O)C[C@@H]2C(=O)Nc3ccc(Cl)cc3N2S(=O)(=O)c2ccc3ccccc3c2)cc1
3.32 | 10.15 | 98.5 | < 5.00 | – | O=C(C[C@@H]1C(=O)Nc2ccccc2N1S(=O)(=O)c1ccc2ccccc2c1)NCCc1ccc(-c2ncc[nH]2)cc1
3.41 | 10.15 | – | < 5.00 | – | O=C(C[C@@H]1C(=O)Nc2ccc(Cl)cc2N1S(=O)(=O)c1ccc2ccccc2c1)NCCc1ccc(-c2ncc[nH]2)cc1
– | – | – | – | pKi (B1 bradykinin receptor [5]): > 9.70 | [3H][C@@]1(C(=O)NCC(=O)N[C@@H](Cc2ccccc2)C(=O)N[C@@H](CO)C(=O)N2CCC[C@H]2C(=O)N[C@@H](CC(C)C)C(=O)O)CCCN1C(=O)[C@]1([3H])CCCN1C(=O)[C@H](CCCN=C(N)N)NC(=O)[C@@H](N)CCCCN
0.25 | – | – | – | pKi (B1 bradykinin receptor [6]): 10.70; pKi (B2 bradykinin receptor [7]): < 5.00; pKi (B1 bradykinin receptor [8]): 7.47; pKi (B1 bradykinin receptor [9]): 9.30; PPB (Homo sapiens [10]): 79.4%; pKi (B1 bradykinin receptor [11]): 10.30; pIC50 (B1 bradykinin receptor [12]): 10.40; half-life [13]: ~3.33 h; pKd (B1 bradykinin receptor [14]): 10.82; Bmax (fM mg-1 protein) [15]: 480 | O=C(C[C@@H]1C(=O)Nc2ccccc2N1S(=O)(=O)c1ccc2ccccc2c1)NCCc1ccc(C2=NCCN2)cc1
1 | 11.00 | 93.6 | < 5.00 | – | O=C(C[C@@H]1C(=O)Nc2ccc(Cl)cc2N1S(=O)(=O)c1ccc2ccccc2c1)NCCc1ccc(C2=NCCN2)cc1
0.48 | 10.52 | 36 | < 5.00 | – | O=C(C[C@@H]1C(=O)Nc2ccccc2N1S(=O)(=O)c1ccc(Cl)c(Cl)c1)NCCc1ccc(C2=NCCN2)cc1
3.35 | 8.96 | – | < 5.00 | – | O=C(C[C@@H]1C(=O)Nc2ccccc2N1S(=O)(=O)c1ccc(Cl)c(Cl)c1)NCCc1ccc(-n2ccnc2)cc1
2.35 | 8.43 | 82.5 | < 5.00 | – | O=C(C[C@@H]1C(=O)Nc2ccccc2N1S(=O)(=O)c1ccc(Cl)c(Cl)c1)NCCc1ccc(-n2cnnc2)cc1
